From PubChem BioAssay AID588844 (Broad Institute, 2011)
Activity calls are given as the source filed them. How the calls were made is not given here.

What was measured:
[1] = cytotoxicity toward E-cadherin-knockdown HMLE CSC-like cells – cell-based, CellTiter-Glo luminescence, dry powder, set 2, dose response (AID 588844); settings: HMLE_shECad viability, CellTiter-Glo luminescence, 72 h; at 32 µM (top of the series)
[2] = test system: HMLE_shECad viability, CellTiter-Glo luminescence, 72 h; assay: as above

COc1ccc(/C=C/C(=O)NC2=NCCS2)c(OC)c1
remaining viability fraction [1]: 70.8% (inactive)

Cc1csc(NC(=O)c2ccc(COc3cccc(F)c3)o2)n1
remaining viability fraction [1]: 65.6% (inactive)

Cc1ccc(/C=C/C(=O)NC2=NCCS2)cc1
remaining viability fraction [1]: 75.7% (inactive)

Cc1csc(NC(=O)c2ccc(COc3cccc(Cl)c3)o2)n1
AC50 [2]: 3 µM

O=C(/C=C/c1ccc(-c2ccccc2)cc1)NC1=NCCS1
AC50 [2]: 0.625 µM

Cc1csc(NC(=O)c2ccc(COc3ccccc3F)o2)n1
AC50 [2]: 2.43 µM

CC(C)c1ccc(/C=C/C(=O)NC2=NCCS2)cc1
AC50 [2]: 0.3 µM

Cc1csc(NC(=O)c2ccc(COc3ccccc3)o2)n1
AC50 [2]: 0.07 µM

O=C(NC1CCCC1)c1ccc(COc2ccccc2)o1
AC50 [2]: 23.5 µM
